Results as given in US11147272B2, “Pyridone compounds and agricultural and horticultural fungicides comprising the same as active ingredients” (MITSUI CHEMICALS AGRO, INC., priority 2017, dated 2021).

Legend:
[1] = system: Colletotrichum orbiculare; test: Test Example H: Anthracnose on cucumber; details: Anthracnose on cucumber; 250 ppm spray, 6 to 10 days after inoculation
[2] = system: Puccinia recondita; test: Test Example E: Brown rust on wheat; type: in vivo; details: Brown rust on wheat; control value class
[3] = system: Plasmopara viticola; test: Test Example G: Downy mildew on vine; details: Downy mildew on vine; 250 ppm spray, 7 to 10 days after inoculation
[4] = system: Botrytis cinerea; test: Test Example B: Gray mold on tomato; details: Gray mold on tomato; control value class
[5] = system: Blumeria graminis f. sp. hordei; test: Test Example D: Powdery mildew on barley; details: Powdery mildew on barley; control value class
[6] = system: Phytophthora infestans; test: whole plant or invertebrate; type: in vivo; details: Late blight on tomato; control value class
[7] = system: Alternaia brassicicola; test: Test Example C: Alternaria sooty spot on cabbage; type: in vivo; details: Alternaria sooty spot on cabbage; control value class
From the text: Seeds of a test plant (cabbage variety: Shikidori) were planted and cultivated until the cotyledons extended.
<Control Value> Control value=100{1−(n/3)}

[8] = system: Magnaporthe grisea; test: whole plant or invertebrate; type: in vivo; details: Blast on rice; control value class

| Compound | Test H control value [1] | Test E control value [2] | Test G control value [3] | Test B control value [4] | Test D control value [5] | Test F control value [6] | Test C control value [7] | Test A control value [8] |
| --- | --- | --- | --- | --- | --- | --- | --- | --- |
| CCCCCCCCCc1cc(Br)c(=O)n(CC)c1-c1ccc(F)cc1Cl [compound 275] | L (50% or less control value) | L (50% or less control value) | L (50% or less control value) | L (50% or less control value) | H (more than 50% control value) | L (50% or less control value) | L (50% or less control value) | L (50% or less control value) |
| CCCCC(O)c1cc(Cl)c(=O)n(CC)c1-c1c(F)cc(F)cc1F (stereo not shown) [compound 276] | L (50% or less control value) | H (more than 50% control value) | H (more than 50% control value) | H (more than 50% control value) | H (more than 50% control value) | L (50% or less control value) | H (more than 50% control value) | H (more than 50% control value) |
| CCCCC(=O)c1cc(Cl)c(=O)n(CC)c1-c1c(F)cc(F)cc1F [compound 277] | H (more than 50% control value) | H (more than 50% control value) | H (more than 50% control value) | H (more than 50% control value) | H (more than 50% control value) | L (50% or less control value) | H (more than 50% control value) | H (more than 50% control value) |
| CCN1C(=O)CCC(C)=C1c1ccc(F)cc1Cl [compound 278] | H (more than 50% control value) | L (50% or less control value) | L (50% or less control value) | L (50% or less control value) | L (50% or less control value) | H (more than 50% control value) | L (50% or less control value) | L (50% or less control value) |
| CCn1c(-c2ccc(F)cc2Cl)c(C)ccc1=O [compound 279] | L (50% or less control value) | L (50% or less control value) | L (50% or less control value) | L (50% or less control value) | H (more than 50% control value) | L (50% or less control value) | L (50% or less control value) | L (50% or less control value) |
| CCn1c(-c2ccc(F)cc2Cl)c(C)cc(Cl)c1=O [compound 280] | H (more than 50% control value) | H (more than 50% control value) | L (50% or less control value) | H (more than 50% control value) | H (more than 50% control value) | L (50% or less control value) | L (50% or less control value) | L (50% or less control value) |
| CCn1c(-c2ccc(F)cc2Cl)c(C)cc(Br)c1=O [compound 281] | H (more than 50% control value) | H (more than 50% control value) | L (50% or less control value) | H (more than 50% control value) | H (more than 50% control value) | L (50% or less control value) | L (50% or less control value) | L (50% or less control value) |
| CCCCCCC1=C(c2ccc(F)cc2Cl)N(CC)C(=O)CC1 [compound 282] | L (50% or less control value) | L (50% or less control value) | L (50% or less control value) | L (50% or less control value) | H (more than 50% control value) | L (50% or less control value) | L (50% or less control value) | L (50% or less control value) |
| C#CC(O)c1cc(Cl)c(=O)n(CC)c1-c1c(F)cc(F)cc1F (stereo not shown) [compound 283] | H (more than 50% control value) | H (more than 50% control value) | L (50% or less control value) | H (more than 50% control value) | L (50% or less control value) | L (50% or less control value) | H (more than 50% control value) | L (50% or less control value) |
| C#CC(=O)c1cc(Cl)c(=O)n(CC)c1-c1c(F)cc(F)cc1F [compound 284] | H (more than 50% control value) | H (more than 50% control value) | H (more than 50% control value) | H (more than 50% control value) | H (more than 50% control value) | H (more than 50% control value) | H (more than 50% control value) | L (50% or less control value) |
| C#CC(OC)c1cc(Cl)c(=O)n(CC)c1-c1c(F)cc(F)cc1F (stereo not shown) [compound 285] | H (more than 50% control value) | H (more than 50% control value) | L (50% or less control value) | H (more than 50% control value) | H (more than 50% control value) | L (50% or less control value) | H (more than 50% control value) | H (more than 50% control value) |
| C#CC(F)c1cc(Cl)c(=O)n(CC)c1-c1c(F)cc(F)cc1F (stereo not shown) [compound 286] | H (more than 50% control value) | H (more than 50% control value) | L (50% or less control value) | H (more than 50% control value) | L (50% or less control value) | L (50% or less control value) | H (more than 50% control value) | L (50% or less control value) |
| CCn1c(-c2ccc(OC)cc2)c(C=O)cc(Cl)c1=O [compound 287] | L (50% or less control value) | L (50% or less control value) | L (50% or less control value) | L (50% or less control value) | L (50% or less control value) | L (50% or less control value) | H (more than 50% control value) | L (50% or less control value) |
| CCn1c(-c2ccc(C#N)cc2)c(C=O)cc(Cl)c1=O [compound 288] | L (50% or less control value) | L (50% or less control value) | L (50% or less control value) | L (50% or less control value) | L (50% or less control value) | L (50% or less control value) | H (more than 50% control value) | L (50% or less control value) |
| CCn1c(-c2ccc(F)cc2)c(C=O)cc(Cl)c1=O [compound 290] | L (50% or less control value) | L (50% or less control value) | L (50% or less control value) | L (50% or less control value) | L (50% or less control value) | H (more than 50% control value) | H (more than 50% control value) | L (50% or less control value) |
| CCCCCCc1ccc(=O)n(CC)c1-c1ccc(F)cc1Cl [compound 291] | H (more than 50% control value) | H (more than 50% control value) | L (50% or less control value) | L (50% or less control value) | H (more than 50% control value) | L (50% or less control value) | L (50% or less control value) | L (50% or less control value) |
| CCCCCCc1cc(Cl)c(=O)n(CC)c1-c1ccc(F)cc1Cl [compound 292] | L (50% or less control value) | L (50% or less control value) | L (50% or less control value) | H (more than 50% control value) | H (more than 50% control value) | L (50% or less control value) | H (more than 50% control value) | L (50% or less control value) |
